The subject of one assay is HEK-293 cells. In words: 3H-labeled amino acid uptake selectivity panel. As to conditions: 3H-leucine, HEK293. In kind it is cell-based, human. The protocol: Live-cell amino acid uptake assays using HEK293 cells were carried out in 96-well plates (CulturPlate-96, Perkin Elmer). 96-well plates were coated with poly-D-lysine prior to the assay. Cells were plated at a density of 35,000 cells per well 24 h prior to carrying out the assay. Each set of conditions was replicated at least three times, technically and biologically. […] For ASCT2-mediated ^3H-glutamine uptake assays, 5 mM of the system-L inhibitor 2-amino-2-norbornanecarboxylic acid (BCH) was added and the assay buffer was adjusted to pH 6.0. For selectivity studies, no BCH was added and the assay was conducted at pH 7.4. Following the incubation period, the ^3H-glutamine/inhibitor was removed and the cells were washed three times with assay buffer. The cells were then lysed by the addition of 50 μL of 1 M NaOH. For reading, 150 μL of scintillation fluid (Microscint 40, Perkin Elmer) was added and the plates were counted on a scintillation counter (Topcount, Perkin Elmer). Fifty percent inhibitory concentrations (IC50) were calculated using GraphPad Prism version 6 for Mac OS X, GraphPad Software, San Diego Calif. USA, www.graphpad.com. Error is reported as standard deviation (SD).

The test system of assay [1] is human CRC organoids A-007 and A-008. Kind of assay: Human CRC organoid viability assay. The assay is classed as cell-based. As to conditions: V-9302 25 μM or CB-839 35 μM, 96 h. The protocol:
Human CRC-derived organoids were prepared as reported method with modification^41. Briefly, specimens from freshly resected tumors were minced and digested with 2 mg/ml type 2 collagenase (Worthington, N.J., USA). Samples were passed through 40 µm filters (Greiner Bio One, NC, USA) and epithelial cells trapped on the filters were embed in Matrigel (Corning, MA, USA) and cultured with advanced DMEM/F12 supplemented with N2 and B27 supplements (Thermo Fischer, MA, USA), 50 ng/ml rhEGF (R&D systems, MN, USA) and 1% antibiotic-antimycotic (Corning). For viability assay, organoids were dissociated by TrypLE express (Thermo Fischer) and suspended in Matrigel. […] After 4 days of culture, images of the organoids in Matrigel were captured and the number of viable cells were quantified with CellTiter Aqueous One Cell Proliferation Assay kit (Promega, WI, USA) and a Synergy 4 plate reader (BioTek, VT, USA). The assay was replicated at least three times, technically and biologically. Significance was calculated using a t-test in Graphpad Prism. Error is reported as standard deviation (SD).

For `Cc1cccc(COc2ccccc2CN(CCC(N)C(=O)O)Cc2ccccc2OCc2cccc(C)c2)c1` (centres unmarked) [Compound V-9302], the “inhibition of leucine uptake” value in the assay on HEK-293 cells is reported as “capable of inhibiting the uptake of another ASCT2 substrate, leucine”. Further, the organoid viability entry in assay [1] is on record as “significantly reduced”.
